Experimental data taken from the supplement of paper PMC11061612.

Columns and labels:
Capivasertib = compound: C1CN(CCC1(C(=O)N[C@@H](CCO)C2=CC=C(C=C2)Cl)N)C3=NC=NC4=C3C=CN4 [Capivasertib]; conditions: max 10 µM
Method in brief: (§1)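 Cancer cell lines were seeded in 1536-well plates in 7.5 μl DMEM/F12 or RPMI with 10% FBS, held 24 hours at 37°C and 5% CO2, then dosed for 72 hours (final DMSO typically 0.2%). Viability was read by CellTiter-Glo 2.0 luminescence and scaled between blank-well and DMSO-well means. The single-agent IC50 comes from dose responses fitted to a two-parameter logistic curve with a non-linear mixed effects model.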

AZD1775 = compound: C=CCn1c(=O)c2cnc(Nc3ccc(N4CCN(C)CC4)cc3)nc2n1-c1cccc(C(C)(C)O)n1 [AZD1775]; conditions: max 3 µM
Method in brief: as §1

Trametinib = compound: CC(=O)Nc1cccc(-n2c(=O)n(C3CC3)c(=O)c3c(Nc4ccc(I)cc4F)n(C)c(=O)c(C)c32)c1 [Trametinib]; conditions: max 1 µM
Method in brief: as §1

Palbociclib = compound: CC(=O)c1c(C)c2cnc(Nc3ccc(N4CCNCC4)cn3)nc2n(C2CCCC2)c1=O [Palbociclib]; conditions: max 10 µM
Method in brief: as §1

AZD1390 = compound: CC(C)n1c(=O)n(C)c2cnc3cc(F)c(-c4ccc(OCCCN5CCCCC5)nc4)cc3c21 [AZD1390]; conditions: max 0.3 µM
Method in brief: as §1

Venetoclax = compound: CC1(C)CCC(CN2CCN(c3ccc(C(=O)NS(=O)(=O)c4ccc(NCC5CCOCC5)c([N+](=O)[O-])c4)c(Oc4cnc5[nH]ccc5c4)c3)CC2)=C(c2ccc(Cl)cc2)C1 [Venetoclax]; conditions: max 1 µM
Method in brief: as §1

Dasatinib = compound: CC1=C(C(=CC=C1)Cl)NC(=O)C2=CN=C(S2)NC3=CC(=NC(=N3)C)N4CCN(CC4)CCO [Dasatinib]; conditions: max 2 µM
Method in brief: as §1

SG3199 = compound: CC1=CN2[C@@H](C1)C=NC3=CC(=C(C=C3C2=O)OC)OCCCCCOC4=C(C=C5C(=C4)N=C[C@@H]6CC(=CN6C5=O)C)OC [SG3199]; conditions: max 0.001 µM
Method in brief: as §1

AZD2811 = compound: CCN(CCO)CCCOc1ccc2c(Nc3cc(CC(=O)Nc4cccc(F)c4)[nH]n3)ncnc2c1 [AZD2811]; conditions: max 1 µM
Method in brief: as §1

SN-38 = compound: CCc1c2c(nc3ccc(O)cc13)-c1cc3c(c(=O)n1C2)COC(=O)[C@]3(O)CC [SN-38]; conditions: max 0.3 µM
Method in brief: as §1

AZD0156 = compound: CN(C)CCCOc1ccc(-c2ccc3ncc4c(c3c2)n(C2CCOCC2)c(=O)n4C)cn1 [AZD0156]; conditions: max 3 µM
Method in brief: as §1

AZD4320 = compound: CN(CC[C@H](CSC1=CC=CC=C1)NC2=C(C=C(C=C2)S(=O)(=O)NC(=O)C3=CC=C(C=C3)N4CCC(CC4)[C@H](C5=CC=CC=C5C6=CC=C(C=C6)Cl)O)S(=O)(=O)C(F)(F)F)CCO [AZD4320]; conditions: max 1 µM
Method in brief: as §1

Alisertib = compound: COc1cc(Nc2ncc3c(n2)-c2ccc(Cl)cc2C(c2c(F)cccc2OC)=NC3)ccc1C(=O)O [Alisertib]; conditions: max 10 µM
Method in brief: as §1

Gefitinib = compound: COc1cc2ncnc(Nc3ccc(F)c(Cl)c3)c2cc1OCCCN1CCOCC1 [Gefitinib]; conditions: max 10 µM
Method in brief: as §1

Prexasertib = compound: COc1cccc(OCCCN)c1-c1cc(Nc2cnc(C#N)cn2)n[nH]1 [Prexasertib]; conditions: max 1 µM
Method in brief: as §1

Doxorubicin = compound: COc1cccc2c1C(=O)c1c(O)c3c(c(O)c1C2=O)C[C@@](O)(C(=O)CO)C[C@@H]3O[C@H]1C[C@H](N)[C@H](O)[C@H](C)O1 [Doxorubicin]; conditions: max 1 µM
Method in brief: as §1

AZD5153 = compound: COc1nnc2ccc(N3CCC(c4ccc(OCCN5CCN(C)C(=O)[C@H]5C)cc4)CC3)nn12 [AZD5153]; conditions: max 1 µM
Method in brief: as §1

Lapatinib = compound: CS(=O)(=O)CCNCc1ccc(-c2ccc3ncnc(Nc4ccc(OCc5cccc(F)c5)c(Cl)c4)c3c2)o1 [Lapatinib]; conditions: max 10 µM
Method in brief: as §1

AZD8186 = compound: C[C@@H](Nc1cc(F)cc(F)c1)c1cc(C(=O)N(C)C)cc2c(=O)cc(N3CCOCC3)oc12 [AZD8186]; conditions: max 3 µM
Method in brief: as §1

Crizotinib = compound: C[C@@H](Oc1cc(-c2cnn(C3CCNCC3)c2)cnc1N)c1c(Cl)ccc(F)c1Cl [Crizotinib]; conditions: max 10 µM
Method in brief: as §1

Savolitinib = compound: C[C@@H](c1ccc2nccn2c1)n1nnc2ncc(-c3cnn(C)c3)nc21 [Savolitinib]; conditions: max 1 µM
Method in brief: as §1

AZD6738 = compound: C[C@@H]1COCCN1C2=NC(=NC(=C2)C3(CC3)[S@](=N)(=O)C)C4=C5C=CNC5=NC=C4 [AZD6738]; conditions: max 10 µM
Method in brief: as §1

AZD5991 = compound: Cc1c2c(nn1C)CSCc1cc(n(C)n1)CSc1cc(c3ccccc3c1)OCCCc1c(C(=O)O)n(C)c3c-2c(Cl)ccc13 [AZD5991]; conditions: max 1 µM
Method in brief: as §1

AZD7648 = compound: Cc1cc2ncnn2cc1Nc1ncc2c(n1)n(C1CCOCC1)c(=O)n2C [AZD7648]; conditions: max 10 µM
Method in brief: as §1

Taselisib = compound: Cc1nc(-c2cn3c(n2)-c2ccc(-c4cnn(C(C)(C)C(N)=O)c4)cc2OCC3)n(C(C)C)n1 [Taselisib]; conditions: max 10 µM
Method in brief: as §1

Selumetinib = compound: Cn1cnc2c(F)c(Nc3ccc(Br)cc3Cl)c(C(=O)NOCCO)cc21 [Selumetinib]; conditions: max 10 µM
Method in brief: as §1

Olaparib = compound: O=C(c1cc(Cc2n[nH]c(=O)c3ccccc23)ccc1F)N1CCN(C(=O)C2CC2)CC1 [Olaparib]; conditions: max 10 µM
Method in brief: as §1

Cell Line: 8-MG-BA (Glioblastoma)
- IC50, cell viability 72 h (Capivasertib): > 10 µM
- IC50, cell viability 72 h (AZD1775): 0.43 µM
- IC50, cell viability 72 h (Trametinib): > 1 µM
- IC50, cell viability 72 h (Palbociclib): > 10 µM
- IC50, cell viability 72 h (AZD1390): > 0.3 µM
- IC50, cell viability 72 h (Venetoclax): > 1 µM
- IC50, cell viability 72 h (Dasatinib): 0.255 µM
- IC50, cell viability 72 h (SG3199): > 0.001 µM
- IC50, cell viability 72 h (AZD2811): > 1 µM
- IC50, cell viability 72 h (SN-38): 0.0154 µM
- IC50, cell viability 72 h (AZD0156): > 3 µM
- IC50, cell viability 72 h (AZD4320): > 1 µM
- IC50, cell viability 72 h (Alisertib): > 10 µM
- IC50, cell viability 72 h (Gefitinib): > 10 µM
- IC50, cell viability 72 h (Prexasertib): 0.0211 µM
- IC50, cell viability 72 h (Doxorubicin): 0.393 µM
- IC50, cell viability 72 h (AZD5153): 0.136 µM
- IC50, cell viability 72 h (Lapatinib): 8.81 µM
- IC50, cell viability 72 h (AZD8186): > 3 µM
- IC50, cell viability 72 h (Crizotinib): 8.8 µM
- IC50, cell viability 72 h (Savolitinib): > 1 µM
- IC50, cell viability 72 h (AZD6738): 2.24 µM
- IC50, cell viability 72 h (AZD5991): 0.676 µM
- IC50, cell viability 72 h (AZD7648): > 10 µM
- IC50, cell viability 72 h (Taselisib): 3.73 µM
- IC50, cell viability 72 h (Selumetinib): > 10 µM
- IC50, cell viability 72 h (Olaparib): > 10 µM

Cell Line: A3-KAW (B-Cell Non-Hodgkin's Lymphoma)
- IC50, cell viability 72 h (Capivasertib): > 10 µM
- IC50, cell viability 72 h (AZD1775): 0.117 µM
- IC50, cell viability 72 h (Trametinib): 0.997 µM
- IC50, cell viability 72 h (Palbociclib): 1.3 µM
- IC50, cell viability 72 h (AZD1390): > 0.3 µM
- IC50, cell viability 72 h (Venetoclax): > 1 µM
- IC50, cell viability 72 h (Dasatinib): > 2 µM
- IC50, cell viability 72 h (SG3199): > 0.001 µM
- IC50, cell viability 72 h (AZD2811): 0.887 µM
- IC50, cell viability 72 h (SN-38): 0.00318 µM
- IC50, cell viability 72 h (AZD0156): 1.35 µM
- IC50, cell viability 72 h (AZD4320): > 1 µM
- IC50, cell viability 72 h (Alisertib): 0.0686 µM
- IC50, cell viability 72 h (Gefitinib): > 10 µM
- IC50, cell viability 72 h (Prexasertib): 0.00737 µM
- IC50, cell viability 72 h (Doxorubicin): 0.0863 µM
- IC50, cell viability 72 h (AZD5153): 0.0111 µM
- IC50, cell viability 72 h (Lapatinib): > 10 µM
- IC50, cell viability 72 h (AZD8186): > 3 µM
- IC50, cell viability 72 h (Crizotinib): 3.98 µM
- IC50, cell viability 72 h (Savolitinib): > 1 µM
- IC50, cell viability 72 h (AZD6738): 0.355 µM
- IC50, cell viability 72 h (AZD5991): 0.0217 µM
- IC50, cell viability 72 h (AZD7648): > 10 µM
- IC50, cell viability 72 h (Taselisib): > 10 µM
- IC50, cell viability 72 h (Selumetinib): > 10 µM
- IC50, cell viability 72 h (Olaparib): 8.45 µM
